Laboratory results published in ChEMBL document CHEMBL1201862, “PubChem BioAssay data set” (2004).
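Tested at 5 concentrations; 48 h exposure; 96-well plates; endpoints linearly interpolated, else capped at highest concentration. GI50 = concentration required for 50% inhibition of growth.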 The source made the active and inactive calls. Cut-off read from the data, not from the text of the source: active = GI50 up to about 1.1 µM and inactive = higher.

Experiments:
Assay in all cases: NCI tumour cell line growth inhibition, 48 h
NCI-H522 = tested on: NCI-H522
HCT-116 = tested on: HCT-116
SK-MEL-5 = tested on: SK-MEL-5
SK-MEL-2 = tested on: SK-MEL-2
BT-549 = tested on: BT-549
TK-10 = tested on: TK-10
OVCAR-4 = tested on: OVCAR-4
SF-295 = tested on: SF-295
RPMI-8226 = tested on: RPMI-8226
SNB-75 = tested on: SNB-75
MCF7 = tested on: MCF7
HOP-62 = tested on: HOP-62
SNB-19 = tested on: SNB-19
HT-29 = tested on: HT-29
MOLT-4 = tested on: MOLT-4
MDA-MB-435 = tested on: MDA-MB-435
CCRF-CEM = tested on: CCRF-CEM
A498 = tested on: A498
HOP-92 = tested on: HOP-92

| SMILES | GI50 (NCI-H522) | GI50 (HCT-116) | GI50 (SK-MEL-5) | GI50 (SK-MEL-2) | GI50 (BT-549) | GI50 (TK-10) | GI50 (OVCAR-4) | GI50 (SF-295) | GI50 (RPMI-8226) | GI50 (SNB-75) | GI50 (MCF7) | GI50 (HOP-62) | GI50 (SNB-19) | GI50 (HT-29) | GI50 (MOLT-4) | GI50 (MDA-MB-435) | GI50 (CCRF-CEM) | GI50 (A498) | GI50 (HOP-92) |
| --- | --- | --- | --- | --- | --- | --- | --- | --- | --- | --- | --- | --- | --- | --- | --- | --- | --- | --- | --- |
| Cc1cc2c(cc1Cl)SC(NNC(=O)c1ccccc1)=NS2(=O)=O | > 10 µM (inactive) | > 10 µM (inactive) | > 10 µM (inactive) | > 10 µM (inactive) | > 10 µM (inactive) | > 10 µM (inactive) | > 10 µM (inactive) | > 10 µM (inactive) | > 10 µM (inactive) | > 10 µM (inactive) | 2.21 µM (inactive) | > 10 µM (inactive) | > 10 µM (inactive) | > 10 µM (inactive) | > 10 µM (inactive) | > 10 µM (inactive) | > 10 µM (inactive) | > 10 µM (inactive) |  |
| C1CNCCNCCN1 | > 100 µM (inactive) | > 100 µM (inactive) | > 100 µM (inactive) | > 100 µM (inactive) | > 100 µM (inactive) | > 100 µM (inactive) | > 100 µM (inactive) | > 100 µM (inactive) | > 100 µM (inactive) |  | > 100 µM (inactive) | > 100 µM (inactive) | > 100 µM (inactive) | > 100 µM (inactive) | > 100 µM (inactive) | > 100 µM (inactive) | > 100 µM (inactive) | > 100 µM (inactive) | > 100 µM (inactive) |
| COc1ccc(C(=C(Cl)c2ccccc2)c2ccc(OC)cc2)cc1 | 84.3 µM (inactive) | 48.1 µM (inactive) | 79.3 µM (inactive) | > 100 µM (inactive) | > 100 µM (inactive) | > 100 µM (inactive) | > 100 µM (inactive) | > 100 µM (inactive) | 35.1 µM (inactive) |  | > 100 µM (inactive) | > 100 µM (inactive) | > 100 µM (inactive) | 11.9 µM (inactive) | > 100 µM (inactive) | > 100 µM (inactive) | > 100 µM (inactive) | > 100 µM (inactive) | > 100 µM (inactive) |
| COc1ccc2cc(/C=N\NC(=O)Nc3ccc([N+](=O)[O-])cc3)ccc2c1 | 13.5 µM (inactive) | 11.6 µM (inactive) | 11.7 µM (inactive) | 13.3 µM (inactive) | 12.7 µM (inactive) | 7.96 µM (inactive) | 5.04 µM (inactive) | 13.8 µM (inactive) | 13.8 µM (inactive) | 13.2 µM (inactive) | 14.4 µM (inactive) | 14.8 µM (inactive) | 13.2 µM (inactive) | 11.5 µM (inactive) | 16.5 µM (inactive) | 14.1 µM (inactive) | > 10 µM (inactive) |  | 16 µM (inactive) |
| Cc1c(C(=O)OCc2ccccc2)[n+]([O-])c2ccccc2[n+]1[O-] |  | 25.1 µM (inactive) | 22 µM (inactive) | 32.8 µM (inactive) | 57.9 µM (inactive) | 33.2 µM (inactive) | 20.8 µM (inactive) | 32.7 µM (inactive) | 11.6 µM (inactive) | 15.6 µM (inactive) | 19.5 µM (inactive) | 22.3 µM (inactive) | 57.3 µM (inactive) | 60.8 µM (inactive) | 5.4 µM (inactive) | 26.4 µM (inactive) | < 0.01 µM (active) | 36.1 µM (inactive) | 0.22 µM (active) |
| C=CCN(C(=O)CNC(=O)C(F)(F)F)c1cc(OCc2ccccc2)c2c(c1)c(C)cn2S(=O)(=O)c1ccccc1 | 6.19 µM (inactive) | 7.66 µM (inactive) | 24 µM (inactive) | > 28.5 µM (inactive) | > 100 µM (inactive) | > 100 µM (inactive) | 9.16 µM (inactive) | 23 µM (inactive) | 4.73 µM (inactive) | 4.8 µM (inactive) | 7.57 µM (inactive) | > 100 µM (inactive) | > 100 µM (inactive) | > 100 µM (inactive) | 4.16 µM (inactive) | 40.6 µM (inactive) | 0.139 µM (active) |  | 4.92 µM (inactive) |
| CC1CCC(=O)C(C(=O)CC2CC(=O)NC(=O)C2)C1 (stereo not given) |  | > 100 µM (inactive) | > 100 µM (inactive) | > 100 µM (inactive) | > 100 µM (inactive) | > 100 µM (inactive) | > 100 µM (inactive) | > 100 µM (inactive) | > 100 µM (inactive) | > 100 µM (inactive) | > 100 µM (inactive) | > 100 µM (inactive) | > 100 µM (inactive) | > 100 µM (inactive) | > 100 µM (inactive) | > 100 µM (inactive) | > 100 µM (inactive) | > 100 µM (inactive) | > 100 µM (inactive) |
| O=C(c1ccccc1)N1OCCC1Nc1ccc(Br)cc1 (stereo not given) | > 10 µM (inactive) | 4.25 µM (inactive) | 6.97 µM (inactive) | > 10 µM (inactive) | > 10 µM (inactive) | > 10 µM (inactive) | > 10 µM (inactive) | 2.08 µM (inactive) | 4.71 µM (inactive) | > 10 µM (inactive) | 5.97 µM (inactive) | 7.57 µM (inactive) | > 10 µM (inactive) | 0.818 µM (active) | 4 µM (inactive) | 0.499 µM (active) | 3.8 µM (inactive) |  |  |
| O=C(NC1CCC(=O)N1C(=O)OCc1ccccc1)OCc1ccccc1 (stereo not given) | > 100 µM (inactive) |  | > 100 µM (inactive) | > 100 µM (inactive) | > 100 µM (inactive) | > 100 µM (inactive) |  | > 100 µM (inactive) | > 100 µM (inactive) | 77.6 µM (inactive) | > 100 µM (inactive) | > 100 µM (inactive) | > 100 µM (inactive) | > 100 µM (inactive) | > 100 µM (inactive) | > 100 µM (inactive) |  |  | > 100 µM (inactive) |
| COc1nc(C#CCCCC#N)nc(OC)n1 | 14.2 µM (inactive) | 8.79 µM (inactive) | 13.3 µM (inactive) | 16 µM (inactive) | 15.9 µM (inactive) | 21.6 µM (inactive) | 3.82 µM (inactive) | 28.2 µM (inactive) |  | 19.5 µM (inactive) | 5.27 µM (inactive) | 24.2 µM (inactive) | 77.3 µM (inactive) | 24.3 µM (inactive) | 14.4 µM (inactive) | 10.4 µM (inactive) |  | 20.7 µM (inactive) |  |
| O=c1c2cc([N+](=O)[O-])cnc2sn1-c1ccc(Oc2ccccc2)cc1 | 4.66 µM (inactive) | 25.2 µM (inactive) | 88.5 µM (inactive) | 26.7 µM (inactive) | 52.8 µM (inactive) | > 100 µM (inactive) | 25.8 µM (inactive) | 31 µM (inactive) | 41.5 µM (inactive) | 51.6 µM (inactive) | 35.3 µM (inactive) | 34.2 µM (inactive) | 32.6 µM (inactive) | 62.5 µM (inactive) | > 100 µM (inactive) | 34 µM (inactive) | 26.9 µM (inactive) |  | 23 µM (inactive) |
| CCN(CC)C(=S)SC(C(=O)Nc1nnc(-c2ccccc2)o1)c1ccccc1 (stereo not given) | 17.8 µM (inactive) | 16 µM (inactive) | 14.6 µM (inactive) | 18.1 µM (inactive) | 13.1 µM (inactive) | 44.5 µM (inactive) | 25.9 µM (inactive) | 15.6 µM (inactive) | 24.4 µM (inactive) | 31.9 µM (inactive) | 18.5 µM (inactive) | 20.9 µM (inactive) | 29.8 µM (inactive) | 17.9 µM (inactive) | 2.88 µM (inactive) | 17.1 µM (inactive) |  | 18.2 µM (inactive) |  |
| CN(C)C(=O)C(F)(F)C(c1ccccc1)C1C(=O)N(C)C(=O)N(C)C1=O (stereo not given) |  | > 100 µM (inactive) | > 100 µM (inactive) | > 100 µM (inactive) | > 100 µM (inactive) | > 100 µM (inactive) | > 100 µM (inactive) | > 100 µM (inactive) | > 100 µM (inactive) | > 100 µM (inactive) | > 100 µM (inactive) | > 100 µM (inactive) | > 100 µM (inactive) |  | > 100 µM (inactive) | > 100 µM (inactive) | > 100 µM (inactive) | > 100 µM (inactive) | > 100 µM (inactive) |
| O=C(COC(c1ccc(F)cc1)c1ccc(F)cc1)N1CCN(CCCc2ccccc2)CC1 | 4.4 µM (inactive) | 2.88 µM (inactive) | 2.65 µM (inactive) | 3.87 µM (inactive) | 3.02 µM (inactive) | 5.35 µM (inactive) | 3.24 µM (inactive) | 4.04 µM (inactive) | 3.39 µM (inactive) |  | 3.32 µM (inactive) | 6.52 µM (inactive) | 4.22 µM (inactive) | 3.17 µM (inactive) | 4.66 µM (inactive) | 3.67 µM (inactive) | 7.62 µM (inactive) | 3.08 µM (inactive) | 2.55 µM (inactive) |
| N/C(=N\c1ccccc1)c1ccccc1N |  | > 100 µM (inactive) | > 100 µM (inactive) | > 100 µM (inactive) | > 100 µM (inactive) | > 100 µM (inactive) | > 100 µM (inactive) | > 100 µM (inactive) | > 100 µM (inactive) | 80.2 µM (inactive) | > 100 µM (inactive) | > 100 µM (inactive) | > 100 µM (inactive) | > 100 µM (inactive) | > 100 µM (inactive) | > 100 µM (inactive) | 40.6 µM (inactive) | > 100 µM (inactive) | 2.51 µM (inactive) |
| COC(=O)[C@]1(Cc2ccc3ccccc3c2)CCCCCCN1C(=O)c1ccccc1 |  | > 25.4 µM (inactive) | > 100 µM (inactive) | 12.6 µM (inactive) | > 39.5 µM (inactive) | > 36.6 µM (inactive) | 12.7 µM (inactive) | > 23.4 µM (inactive) | 4.15 µM (inactive) | 17.5 µM (inactive) | > 32.2 µM (inactive) | > 30.1 µM (inactive) | > 44.6 µM (inactive) | > 28.2 µM (inactive) | > 21.3 µM (inactive) | > 37.2 µM (inactive) | > 23.9 µM (inactive) | > 36.1 µM (inactive) | > 38.5 µM (inactive) |
